Data taken from USRE50050E1, “Pyrimidinedione compounds” (MyoKardia, Inc., priority 2013, dated 2024).
Where two headings read alike, the source gives them in different places.

Legend:
[1] = system: adult rat ventricular myocytes; assay: Cardiomyocyte contractility assay (fractional shortening, IonOptix); assay type: cell-based; settings: Ventricular myocyte, 5 min, 5 minutes of compound; for inhibition at 0.3 µM: 0.3 uM compound; for inhibition at 1 µM: 1.0 uM compound
Experimental: Contractility of adult rat ventricular myocytes is determined by edge detection with an IonOptix contractility system. Aliquots of myocytes in Tyrode buffer (137 mM NaCl, 3.7 mM KCL, 0.5 mM MgCl2, 1.5 mM CaCl2, 4 mM HEPES, 11 mM glucose) are placed in a perfusion chamber (Series 20 RC-27NE; Warner Instruments), allowed to adhere to the coverslip, and then perfused with 37° C. Tyrode buffer. Myocytes are filed stimulated at 1 Hz and 10V. Only myocytes with clear striations, quiescent prior to pacing, with a cell length of 120-180 microns, a basal fractional shortening equal to 3-8% of the cell length, and a contraction velocity greater than 100 microns per second are used for contractility experiments. To determine the response to compounds, myocytes are first perfused for 60 seconds with Tyrodes buffer followed by 5 minutes of compound and a 140 second washout with Tyrodes buffer. Data is continuously recorded using IonOptix software. Contractility data is analyzed using Ionwizard software (IonOptix). For each cell, 10-20 contractility transients were averaged and compared under basal (no compound) and compound-treated conditions. Compound activity is measured by effects on fractional shortening (FS), where fractional shortening is the ratio of the peak length of the cell at contraction divided by the basal cell length normalized to 100% for an untreated cell.

[2] = system: cardiac contractility in rat; assay: Acute pharmacodynamic effect in rat (echocardiographic fractional shortening); assay type: in vivo; settings: male Sprague-Dawley rats, single dose 4 mg/kg by oral gavage, percent reduction of baseline
Experimental: Representative compounds were tested for their ability to modulate cardiac contractility in rat as a measure of in vivo target engagement. Fractional shortening, a measure of contractility, was determined by noting the change in the diameter of the left ventricle at the end of systole/contraction (LVESd) relative to diastole/relaxation (LVEDd) and expressing this change as the ratio FS=(LVEDd−LVESd)/LVEDd. Fed male Sprague-Dawley rats were lightly anesthetized with isofluorane and baseline fractional shortening was measured in the parasternal position using transthoracic echocardiography (TTE). Following this measurement, animals were recovered and received a single dose of compound (4 mg/kg) by oral gavage. At three hours post-dose, second and third echocardiograms were collected under light anesthesia to determine drug effects on contractility. Effects are represented in Table 5 as a percent reduction of baseline fractional shortening.

bovine cardiac myosin = target: T1, bovine cardiac myosin (Bos taurus, UniProt Q9BE39); assay: Myosin inhibition assay (PK/LDH-coupled ATPase, bovine cardiac myofibrils); assay type: biochemical; settings: bovine cardiac myofibrils
T1 construct: The source of cardiac myosin was from bovine heart in the form of skinned myofibrils; from tissue; host or cells: bovine heart, skinned myofibrils
Experimental: Small molecule agents were assessed for their ability to inhibit the enzymatic activity of bovine cardiac myosin using a biochemical assay that couples the release of ADP (adenosine diphosphate) from cardiac myosin to an enzymatic coupling system consisting of pyruvate kinase and lactate dehydrogenase (PK/LDH) and monitoring the absorbance decrease of NADH (at 340 nm) as a function of time. PK converts ADP to ATP (adenosine triphosphate) by converting PEP (phosphoenolpyruvate) to pyruvate. Pyruvate is then converted to lactate by LDH by converting NADH (nicotinamide adenine dinucleotide) to NAD (oxidized nicotinamide adenine dinucleotide). The source of cardiac myosin was from bovine heart in the form of skinned myofibrils. Prior to testing small molecule agents, the bovine myofibrils were assessed for their calcium responsiveness and the calcium concentration that achieves either a 50% (pCa50) or 75% (pCa75) activation of the myofibril system was chosen as the final condition for assessing the inhibitory activity of the small molecule agents. All enzymatic activity was measured in a buffered solution containing 12 mM PIPES (piperazine-N,N′-bis(2-ethanesulfonic acid), 2 mM magnesium chloride at pH 6.8 (PM 12 buffer). Final assay conditions were 1 mg/mL of bovine cardiac myofibrils, 0.4 mM PK/LDH, 50 uM ATP, 0.1 mg/mL BSA (bovine serum albumin), 10 ppm antifoam, 1 mM DTT, 0.5 mM NADH, 1.5 mM PEP at the desired free calcium concentration required to achieve either 50% or 75% activation of the myofibrils.
A dilution series of compound was created in DMSO such that the final desired concentration of compound would be achieved in a volume of 100 μL with a fixed DMSO concentration of 2% (v/v). Typically 2 μL of the dilution series were added to 96 well plate to achieve an 8 or 12 point dose response. Following the addition of 50 μL of a solution containing bovine cardiac myofibrils, PK/LDH and a solution of calcium (that achieved the desired activation), the enzymatic reaction was started with the addition of 50 μL of a solution containing ATP, PEP and NADH. The reaction progress was followed in a Molecular Devices M5e plate reader at ambient temperature using clear half area plates. The plate reader was configured to read absorbance at 340 nm in kinetics mode for 15 minutes. Data were recorded as the slope of the absorbance response to time. The slopes of the absorbance response as a function of time were normalized to slopes on the plate containing DMSO. This normalized rate was then plotted as a function of small molecule concentration and the data was fitted to a four-parameter fit using GraphPad Prism. The midpoint of this plot is the 1050 and is the concentration at which fifty percent of the total response is inhibited.

[3] = calcium giving 75% activation (pCa75), read-out: Biochemical Activity (pCa75)
[4] = calcium giving 50% activation (pCa50), read-out: Biochemical Activity (pCa50)

T1 sequence (Q9BE39 whole entry): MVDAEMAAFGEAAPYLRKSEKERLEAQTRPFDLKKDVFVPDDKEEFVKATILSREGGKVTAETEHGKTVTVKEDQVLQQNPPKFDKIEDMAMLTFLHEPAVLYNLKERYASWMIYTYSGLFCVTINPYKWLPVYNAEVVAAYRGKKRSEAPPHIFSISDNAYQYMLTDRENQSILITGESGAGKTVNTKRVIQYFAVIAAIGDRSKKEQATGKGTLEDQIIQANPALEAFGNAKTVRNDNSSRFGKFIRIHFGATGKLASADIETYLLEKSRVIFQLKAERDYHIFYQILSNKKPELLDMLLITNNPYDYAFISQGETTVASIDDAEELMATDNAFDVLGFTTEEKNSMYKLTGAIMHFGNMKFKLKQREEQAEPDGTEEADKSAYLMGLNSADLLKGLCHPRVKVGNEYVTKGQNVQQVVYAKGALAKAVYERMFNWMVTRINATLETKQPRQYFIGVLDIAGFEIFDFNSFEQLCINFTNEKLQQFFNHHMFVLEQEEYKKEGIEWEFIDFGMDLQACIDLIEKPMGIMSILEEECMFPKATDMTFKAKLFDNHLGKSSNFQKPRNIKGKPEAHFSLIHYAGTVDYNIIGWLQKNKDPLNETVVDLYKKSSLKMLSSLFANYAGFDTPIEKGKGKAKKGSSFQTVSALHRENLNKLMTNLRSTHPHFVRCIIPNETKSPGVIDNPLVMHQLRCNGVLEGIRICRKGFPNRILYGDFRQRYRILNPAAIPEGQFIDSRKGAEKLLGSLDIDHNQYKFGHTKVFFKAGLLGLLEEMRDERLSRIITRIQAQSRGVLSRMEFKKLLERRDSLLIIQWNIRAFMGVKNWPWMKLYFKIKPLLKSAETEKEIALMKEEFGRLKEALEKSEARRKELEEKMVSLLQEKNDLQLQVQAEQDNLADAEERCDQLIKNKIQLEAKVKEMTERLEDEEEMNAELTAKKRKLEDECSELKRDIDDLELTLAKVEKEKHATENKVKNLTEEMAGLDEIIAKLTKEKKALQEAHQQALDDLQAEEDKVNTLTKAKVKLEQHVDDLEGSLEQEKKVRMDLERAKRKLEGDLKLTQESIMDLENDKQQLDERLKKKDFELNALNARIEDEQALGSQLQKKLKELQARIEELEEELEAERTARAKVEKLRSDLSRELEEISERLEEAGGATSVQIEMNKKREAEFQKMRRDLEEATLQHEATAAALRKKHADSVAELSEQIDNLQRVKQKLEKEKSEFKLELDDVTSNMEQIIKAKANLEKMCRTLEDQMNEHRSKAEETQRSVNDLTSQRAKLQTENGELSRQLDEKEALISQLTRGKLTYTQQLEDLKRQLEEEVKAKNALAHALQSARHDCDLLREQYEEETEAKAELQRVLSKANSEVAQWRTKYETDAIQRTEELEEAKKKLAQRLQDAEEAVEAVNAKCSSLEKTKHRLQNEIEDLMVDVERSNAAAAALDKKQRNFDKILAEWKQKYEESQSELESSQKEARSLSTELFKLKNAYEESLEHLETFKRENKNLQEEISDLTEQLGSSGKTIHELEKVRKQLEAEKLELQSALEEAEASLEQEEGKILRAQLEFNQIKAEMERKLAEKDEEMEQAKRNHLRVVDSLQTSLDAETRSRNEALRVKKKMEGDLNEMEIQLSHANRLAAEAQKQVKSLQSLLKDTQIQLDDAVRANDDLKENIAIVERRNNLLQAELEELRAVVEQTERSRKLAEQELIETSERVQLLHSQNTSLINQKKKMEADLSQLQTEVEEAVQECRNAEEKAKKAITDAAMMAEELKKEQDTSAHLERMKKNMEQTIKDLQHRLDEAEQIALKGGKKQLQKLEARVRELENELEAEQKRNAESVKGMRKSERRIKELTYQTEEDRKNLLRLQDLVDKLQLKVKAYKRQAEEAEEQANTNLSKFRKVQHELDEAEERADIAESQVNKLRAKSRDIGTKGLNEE
T1 sequence (P85100 whole entry partner): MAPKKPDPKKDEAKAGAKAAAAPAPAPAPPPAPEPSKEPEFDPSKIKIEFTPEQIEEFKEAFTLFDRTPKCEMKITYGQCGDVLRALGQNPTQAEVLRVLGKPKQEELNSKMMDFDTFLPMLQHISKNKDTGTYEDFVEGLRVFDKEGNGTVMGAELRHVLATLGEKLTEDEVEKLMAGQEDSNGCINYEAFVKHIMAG
T1 sequence (Q3SZE5 whole entry partner): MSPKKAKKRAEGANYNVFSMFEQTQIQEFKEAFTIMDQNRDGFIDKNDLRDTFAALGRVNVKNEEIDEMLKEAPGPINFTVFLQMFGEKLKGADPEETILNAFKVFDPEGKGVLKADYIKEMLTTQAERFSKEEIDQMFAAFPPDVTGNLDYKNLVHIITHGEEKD

SMILES	inhibition at 0.3 µM [1] [%]	inhibition at 1 µM [1] [%]	% Reduction in Fractional Shortening 3 h post-dose [2]	IC50 (bovine cardiac myosin; [3]) [µM]	IC50 (bovine cardiac myosin; [4]) [µM]
CC(C)n1c(=O)cc(N[C@@H](C)c2ccccc2)[nH]c1=O [Compound 1, (S)-3-Isopropyl-6-((1-phenylethyl)amino) pyrimidine-2,4(1H,3H)-dione]	33 to 66	> 66	+++ (+++ presents a relative change in fractional shortening greater than 30%)	–	–
CC(C)n1c(=O)[nH]c(N[C@@H](C)c2ccccc2)c(F)c1=O [Compound 2, (S)-5-Fluoro-3-isopropyl-6-((1-phenylethyl)amino)pyrimidine-2,4(1H,3H)-dione]	33 to 66	> 66	–	1 to 15	–
C[C@H](Nc1cc(=O)n(C2CCN(S(C)(=O)=O)CC2)c(=O)[nH]1)c1ccccc1 [Compound 12, (S)-3-(1-(methylsulfonyl)piperidin-4-yl)-6-(1-phenylethylamino)pyrimidine-2,4(1H,3H)-dione]	–	33 to 66	–	< 1	–
CC(C)n1c(=O)cc(N[C@H](C)c2ccccc2)[nH]c1=O [Compound 19R]	–	< 33	–	–	–
CC(C)n1c(=O)cc(N[C@@H](C)c2cccc(F)c2)[nH]c1=O [Compound 27]	33 to 66	–	–	< 1	< 1
C[C@H](Nc1cc(=O)n(-c2ccccc2)c(=O)[nH]1)c1ccccc1 [Compound 45]	–	–	+ (+ represents a relative change in fractional shortening less than 15%)	< 1	< 1
CCCn1c(=O)cc(N[C@@H](C)c2ccccc2)[nH]c1=O [Compound 48, (S)-6-((1-phenylethyl)amino)-3-propylpyrimidine-2,4(1H,3H)-dione]	–	–	+++ (+++ presents a relative change in fractional shortening greater than 30%)	1 to 15	1 to 15
C[C@H](Nc1cc(=O)n(-c2cc(F)cc(F)c2)c(=O)[nH]1)c1ccccc1 [Compound 49, (S)-3-(3,5-difluorophenyl)-6-((1-phenylethyl)amino)pyrimidine-2,4(1H,3H)-dione]	–	–	+++ (+++ presents a relative change in fractional shortening greater than 30%)	< 1	< 1
C[C@H](Nc1cc(=O)n(CC(F)(F)F)c(=O)[nH]1)c1ccc2c(c1)OCO2 [Compound 67, (S)-6-((1-(benzo[d][1,3]dioxol-5-yl)ethyl)amino)-3-(2,2,2-trifluoroethyl)pyrimidine-2,4(1H,3H)-dione]	–	> 66	–	–	< 1
C[C@H](Nc1cc(=O)n(C2CCC2)c(=O)[nH]1)c1ccccc1 [Compound 69, (S)-3-cyclobutyl-6-((1-phenylethyl)amino)pyrimidine-2,4(1H,3H)-dione]	–	–	+ (+ represents a relative change in fractional shortening less than 15%)	1 to 15	< 1
CC(C)n1c(=O)cc(N[C@@H](C)c2ccccc2C(F)(F)F)[nH]c1=O [Compound 70, (S)-3-isopropyl-6-((1-(2-(trifluoromethyl)phenyl)ethyl)amino) pyrimidine-2,4(1H,3H)-dione]	–	–	++ (++ represents a relative change in fractional shortening between 15-30%)	1 to 15	–
C[C@H](Nc1cc(=O)n(C2(C)CC2)c(=O)[nH]1)c1ccccc1 [Compound 71, (S)-3-(1-methylcyclopropyl)-6-((1-phenylethyl)amino)pyrimidine-2,4(1H,3H)-dione]	–	–	+++ (+++ presents a relative change in fractional shortening greater than 30%)	–	< 1
CCn1c(=O)cc(N[C@@H](C)c2ccc(F)c(F)c2)[nH]c1=O [Compound 134]	–	–	–	–	< 1
CC[C@H](C)n1c(=O)cc(N[C@@H](C)c2ccc(F)cc2)[nH]c1=O [Compound 135]	–	–	–	–	< 1
CCCn1c(=O)cc(N[C@@H](C)c2ccc(F)cc2)[nH]c1=O [Compound 136]	–	–	–	–	< 1
C[C@H](Nc1cc(=O)n(-c2cccc(F)n2)c(=O)[nH]1)c1ccccc1 [Compound 137]	–	–	–	–	< 1
